The melting point is the temperature of the solid-liquid transition.

Each structure is given as a SMILES string.

Take `CCOc1cc(Cc2cnc(N)nc2N)cc(OCC)c1C(C)=O`: the melting point lay within 229 to 231 °C.
To `ClCC1CCN(C(c2ccccc2)c2ccccc2)CC1` belongs 73 to 75 °C; to `Cc1nc(-c2cccc(NC(=O)N3CCc4c(cnc5[nH]nc(Br)c45)C3)c2)no1`, above 152 °C; to `Cc1ccc(C2COc3c(C)c(C)c(NC(=O)CC(C)(C)C)c(C)c32)cc1` (stereo unspecified), 176 to 177 °C.
To `CC(c1ccc(Cl)cc1)N(O)C(N)=O` (stereo unspecified) belongs 125 to 128 °C; to `Cn1cc(C(=O)c2cccc(Cl)c2)cc1C(=O)O`, 214 °C.
To `CC(C)NCCCS(=O)(=O)O` belongs 240 to 243 °C.
As to `CON=C(C(=O)OC)c1ccccc1Oc1ccccc1`, the melting point lay within 109 to 110 °C.
To `O=C(Cc1cccc2ccccc12)N[C@H](Cc1ccc(C(F)(F)F)cc1)[C@@H](O)c1ccc(F)cc1` (racemic) belongs 186 to 187 °C.
To `COc1ccc(-c2cncc(OC3SCC(O)C(O)C3O)c2)cc1OC` (stereo unspecified) belongs 211 °C; to `O=C1NCN(c2ccc(F)cc2)C12CCN(C1CCC(c3ccc(F)cc3)(c3ccc(F)cc3)CC1)CC2`, 237 to 240 °C; to `CNC(COc1ccc(C2C(=O)Oc3c2cc(C(C)(C)C)cc3C(C)(C)C)cc1)C(=O)O` (stereo unspecified), 115 to 121 °C.
To `FC(F)c1nc2ccccc2n1-c1nc(Oc2cccnc2)nc(N2CCOCC2)n1` belongs 229 to 231 °C; to `COc1cccc(CC(=O)O)c1OCCCc1cn(-c2ccc(C(F)(F)F)cc2)nc1C(C)C`, 114 to 115 °C; to `CS(=O)(=O)N1CCS(=O)c2ccccc2C1` (stereo unspecified), 195 to 197 °C.
`NC(=O)CN1C(=O)COc2cc(F)ccc21`: the melting point was in the range of 212 to 214 °C.
Under `Cn1c(=O)c2c(ncn2C(=O)CCC(=O)n2cnc3c2c(=O)n(C)c(=O)n3C)n(C)c1=O` stands 266 °C; under `CC(C)c1ccc2oc(C=Cc3ccc(C#N)cc3)cc(=O)c2c1`, 189 to 191 °C.
Under `NCCCN1CCN(C(c2ccccc2)c2ccccc2)CC1` stands 62 to 63 °C.
With `COc1ccccc1-c1nc(-c2ccccc2)c2ncc(Cl)cc2n1`, the melting point is 116 to 117 °C.
To `COC(=O)c1ccc(Cc2cn(C)c3ccc(C=C(C)C(=O)O)cc23)c(OC)c1` belongs 182 to 183 °C; to `COc1ccccc1Oc1c(O)nc(O)nc1O`, 202 to 204 °C; to `Cc1ccc(-c2nc3ccccc3o2)c(F)c1`, 115 to 117 °C.
Under `O=C(c1ccc(C#Cc2ccccc2)cc1)c1ccc(Oc2ccccc2)cc1` stands 166 °C; under `C[C@H]1[C@H](O)[C@H](O)C(S(=O)(=O)c2ccccc2)=C[C@H](C)[C@H]1O`, 143 to 145 °C.
To `O=C1CCC(N2Cc3c(OCc4cc(CN5CCOCC5)on4)cccc3C2=O)C(=O)N1` (stereo unspecified) belongs 218 to 220 °C; to `Cc1ccc(COn2c(C)c(C(C)C(=O)O)c3cc4c(cc32)OCO4)cc1` (stereo unspecified), 172 to 175 °C.
In turn, `Cc1nc(Cc2ccc(O)cc2)c2c(c1OCCCCNC(C)C)COC2` returned a melting point of 59 to 61 °C.
To `CC(C)Cn1c(C(=O)O)c(-c2ccc(F)cc2)c2cc(OCc3ccccc3)ccc2c1=O` belongs 236 to 237 °C; to `C=CCC1(SC(C)=O)C(C)(C)c2ccccc2C1(C)C`, 65 to 67 °C; to `CCCCS(=O)c1ncn(C(=O)N(CCC)CCC)n1` (stereo unspecified), 39 to 40 °C.
To `COC(C)=CC(=O)Nc1cccc(C)c1` belongs 106 °C; to `COc1cc(Oc2nn(C)c(C(F)(F)F)c2Cl)ccc1[N+](=O)[O-]`, 71 to 73.5 °C.
In the case of `CCNC=C(C(=O)C=Cc1ccc(N(C)C)c(C)c1)C(=O)OC`, the melting point was 98 to 100 °C.
Under `O=Cc1cc2cc(Cl)ccc2nc1Cl` stands 188 to 190 °C; under `CCC(C)(C)c1cc(C(=O)c2ccccc2)c(O)cc1O`, 100 to 104 °C.
As to `CNC(=O)C(CCN(C)C)(c1ccccc1)C(O)c1ccccc1` (stereo unspecified), the melting point is 107 to 115 °C.
As for `Nc1ccc(C(=O)N2CCOCC2)c(N)c1`, the melting point was in the range of 114 to 115 °C.
Compound `CO/C=C(/C(=O)OC)c1ccccc1Oc1cc(O)ncn1` showed a melting point of 168 to 170 °C.
Under `CC(C)(O)[C@H]1C[C@@H](C(=O)O)C1(C)C` stands 98 to 99 °C.
Under `COc1cc(C2CCN(C(=O)CN(C)C)CC2)ccc1Nc1ncc2ccc(-c3ccccc3N(C)S(C)(=O)=O)n2n1` stands 99 to 110 °C; under `CCOC(C)n1cnc(C(N)=O)n1` (stereo unspecified), 163 to 166 °C; under `O=CNNC(=O)N1Cc2ccccc2Oc2ccc(Cl)cc21`, 177 to 181 °C.
To `O=C(Cc1cccnc1)c1ccc2c(c1)CCC2` belongs 55 to 56 °C; to `CC1=C(C)C(=O)C(CCCOc2ccc(C=C3SC(=O)NC3=O)cc2)=C(C)C1=O`, 230 to 232 °C.
With `O=C(O)c1ccc(CCCC2SCC(=O)N2CC#CC2(O)CCCCC2)cc1` (stereo unspecified), the melting point fell in the range of 112 to 115 °C.
Under `NC(=O)NC(=O)c1ccccn1` stands 183 to 185 °C; under `N#CC(C#N)=CN(N=C(C#N)C#N)c1ccc(C#N)cc1`, 231 °C.
Under `CC(C)(C)OC(=O)N1CCC(C(=O)O)(C2CCCCC2)CC1` stands 156 °C; under `NCC(C(=O)O)c1c[nH]c2cc(Cl)ccc12` (stereo unspecified), 245 to 247 °C.
`CC#CCOc1ccc(S(=O)(=O)C2(C(=O)NO)CCN(Cc3cccnc3)CC2)cc1` showed a melting point of 115 °C.
Under `CCN1C(=O)CCCc2c1ccc(Nc1ncc(Cl)c(Nc3ccccc3-n3cccn3)n1)c2OC` stands 183 to 185 °C; under `NC1=NC(c2ccc(F)cc2)CO1` (stereo unspecified), 116 to 121 °C; under `Cc1cccc(CCC(=O)c2ccccc2)c1NC(=O)CC1c2ccccc2Oc2ccccc21`, 175 to 176 °C.
To `CC(C)(C)OC(=O)NCc1cccc(C(O)c2cc(Cl)ccc2NCc2ccc(OCc3ccccc3)c(OCc3ccccc3)c2)c1` (stereo unspecified) belongs 118 to 120 °C; to `CCN1c2ncccc2C(=O)N(C)c2ccc(-c3cnn(CC)c3)nc21`, 60 to 62 °C; to `COC1=Nc2c(C)ccnc2N(C2CC2)c2ncccc21`, 191 to 192 °C.
To `CC1COCc2nc3c(N)nc4ccc(O)cc4c3n21` (stereo unspecified) belongs 262 to 264 °C; to `CC=Cc1ccc(CCNS(=O)(=O)c2ccc(Cl)cc2)cc1`, 153 to 155 °C; to `CC(C)(C(=O)O)C(O)c1ccnc(-c2nc(=O)c3ccccc3s2)c1` (stereo unspecified), 235 to 236 °C.
With `CCOC(=O)C1=C(C)N=C(SCc2ccccc2)N(C(=O)OCC)C1c1ccccc1C(F)(F)F` (stereo unspecified), the melting point was 85.5 to 87.5 °C.
Under `c1ccc(C(c2ccccc2)(c2ncccn2)n2ccnc2)cc1` stands 138 to 143 °C; under `CN1CN(C)C(=N[N+](=O)[O-])N(Cc2cnc(Cl)s2)C1`, 125 to 126 °C.
To `COCCOc1ccc(CCC2(O)CN3CCC2CC3)cc1` (stereo unspecified) belongs 116 to 117 °C; to `COC(=O)c1ccnc(OCc2nc(-c3ccccc3)oc2C)c1`, 106 to 107 °C.
The compound `CC1=Nc2ccc(S(N)(=O)=O)cc2S(=O)(=O)N1` registered a melting point of 295 to 297 °C.
`COc1cc(/C=C/C(=O)/C=C/c2cc(OC)c(OCCO)c(OC)c2)cc(OC)c1OCCO` came in with a melting point of 133 to 135 °C.
To `N=C(N)Nc1nc(CSCCC(=O)NS(N)(=O)=O)cs1` belongs 160 °C.
In the case of `CS(=O)(=O)c1csc(C(=O)C2C(=O)N(C(N)=O)c3ccc(Cl)cc32)c1` (stereo unspecified), the melting point lay within 228 to 230 °C.
To `O=C(c1ccc([N+](=O)[O-])cc1)N1CCN(CCc2ccc(Cl)cc2)CC1` belongs 109 to 110 °C; to `CCOC(=O)c1cc2cc(N(CC)C(C)=O)ccc2[nH]1`, 149 to 150 °C; to `COC(=O)Nc1ccc(C(=O)OC)cc1`, 177 to 178 °C.
`COc1ccc(/C(=C\C(=O)N2CCNCC2)c2ccccc2Cl)cc1` came in with a melting point of 108 to 110 °C.
The compound `O=C(O)CCC(=O)c1ccc(-c2ccc(Cl)cc2F)cc1` displayed a melting point of 127 to 129 °C.
Under `CN(C)Cc1ccc(CSCCNC(=O)NCCCCN(C)CCN(Cc2ccc(F)cc2)c2ccccn2)o1` stands 74 °C; under `Nc1nc(NCCNCC(O)COc2ccccc2)c2ccccc2n1` (stereo unspecified), 152 to 156 °C; under `CC(C)c1c(OCCNC(=O)OC(C)(C)C)noc1-c1cccs1`, 94 to 95 °C.
With `CN(CSC(C)(C)C)C(=O)Nc1cccc(C(F)(F)F)c1`, the melting point fell in the range of 96 to 99 °C.
To `COC(=O)c1ccc(-c2nc(-c3ccc4c(c3)C(C)(C)CCC4(C)C)cs2)cc1` belongs 138 to 140 °C; to `CCOc1nn(Cc2ccc(OCc3nc(-c4ccccc4)ccc3Cl)cc2)cc1CCC(=O)O`, 120 to 121 °C.
Under `Cc1ccnc(Cl)c1C(=O)O` stands 152 to 154 °C; under `COc1ccc2c(c1)C(=O)CCC21CCC(=O)NC1=O` (stereo unspecified), 214 to 215 °C; under `CCOC(=O)c1ccc(-c2nc(COc3ccc(COc4nn(-c5ccccc5)cc4/C=C/P(=O)(OCC)OCC)cc3OC)c(C)o2)s1`, 114 to 115 °C.
To `CC(=O)Nc1nc(C)c(S(=O)(=O)NC(C)(CO)CO)s1` belongs 201 °C; to `O=C(O)CNC(=O)Nc1cccc([N+](=O)[O-])c1`, 217 to 218 °C.
The compound `Cn1c(CC(=O)O)cc2ccccc21` yielded a melting point of 146 to 148 °C.
Under `CCOCc1nc2c(N)nc3ccccc3c2n1CCCC1(O)CCCCC1` stands 175 to 176 °C; under `CCOC(=O)C(=CNC1CCCCC1)C(=O)c1ccc(I)cc1Cl`, 154 to 156 °C; under `O=C1CC(c2ccccc2Cl)Cc2[nH]nc(-c3ccccc3)c21` (stereo unspecified), 218 to 222 °C.
Under `CNc1ccc(Cl)cc1C(=N)c1ccccc1` stands 93 to 95 °C; under `COc1ccc(CCN2C=CC=C3C2=Nc2ccccc2OS3(=O)=O)cc1O`, 158 to 160 °C.

These data come from a melting point compilation (Tetko et al.; mined from patent text by program, amines drawn as free bases though some values may be those of a salt).
